Experimental data from ChEMBL document CHEMBL2424617, “Microwave-assisted synthesis and anticonvulsant activity of 5,6-bisaryl-1,2,4-triazine-3-thiol derivatives” (Med Chem Res, 2013).
Active and inactive are the calls of the source. The calls are words filed in the database; no cut-off is given here.

Legend:
Mus musculus [1] = assay: Neurotoxicity in NMRI mouse assessed as impairment of motor coordination at 100 mg/kg after 30 mins by rotarod test; assay type: toxicity, organism-based; set-up: dose 100 mg/kg; details: in vivo, 0.5 h
Mus musculus [2] = assay: Neurotoxicity in NMRI mouse assessed as impairment of motor coordination at 100 mg/kg after 30 mins by chimney test; assay type: toxicity, organism-based; set-up: dose 100 mg/kg; details: in vivo, 0.5 h
Mus musculus [3] = assay: Anticonvulsant activity in NMRI mouse assessed as […] of PTZ required to induce seizure at 100 mg/kg, ip after 30 mins (reference value: 31.5 +/- 4.4 mg/kg); assay type: functional
Mus musculus [4] = assay: Anticonvulsant activity in NMRI mouse assessed as protection against electroshock-induced seizure at 100 mg/kg after 30 mins; assay type: functional
Mus musculus [5] = assay: Anticonvulsant activity in NMRI mouse assessed as protection against electroshock-induced seizure at 12.5 mg/kg, ip after 30 mins; assay type: functional; details: route intraperitoneal
Mus musculus [6] = assay: Anticonvulsant activity in NMRI mouse assessed as […] of PTZ required to induce seizure at 12.5 mg/kg, ip after 30 mins (reference value: 31.5 +/- 4.4 mg/kg); assay type: functional
Mus musculus [7] = assay: Neurotoxicity in NMRI mouse assessed as impairment of motor coordination at 12.5 mg/kg, ip after 30 mins by chimney test; assay type: toxicity, organism-based; set-up: dose 12.5 mg/kg, route intraperitoneal; details: in vivo, 0.5 h
Mus musculus [8] = assay: Neurotoxicity in NMRI mouse assessed as impairment of motor coordination at 12.5 mg/kg, ip after 30 mins by rotarod test; assay type: toxicity, organism-based; set-up: dose 12.5 mg/kg, route intraperitoneal; details: in vivo, 0.5 h

Structure (SMILES) | Activity (Mus musculus [1]) | Activity (Mus musculus [2]) | Activity (Mus musculus [3]) | Activity (Mus musculus [4]) | Activity (Mus musculus [5]) | Activity (Mus musculus [6]) | Activity (Mus musculus [7]) | Activity (Mus musculus [8])
COc1ccc(-c2nnc(SCc3cccnc3)nc2-c2ccc(OC)cc2)cc1 | Non-toxic | Non-toxic | 41.5 mg/kg | – | – | – | – | –
COc1ccc(-c2nnc(S)nc2-c2ccc(OC)cc2)cc1 | Non-toxic | Non-toxic | – | inactive | – | – | – | –
Clc1ccc(-c2nnc(SCc3ccncc3)nc2-c2ccc(Cl)cc2)cc1 | – | Non-toxic | 43 mg/kg | – | – | – | – | –
CSc1nnc(-c2cccs2)c(-c2cccs2)n1 | Non-toxic | Non-toxic | 38.23 mg/kg | – | – | – | – | –
Sc1nnc(-c2ccc(Cl)cc2)c(-c2ccc(Cl)cc2)n1 | Non-toxic | Non-toxic | – | – | – | – | – | –
Cc1ccc(-c2nnc(SCc3ccncc3)nc2-c2ccc(C)cc2)cc1 | Non-toxic | Non-toxic | 49.4 mg/kg | 100% | – | – | – | –
Cc1ccc(-c2nnc(S)nc2-c2ccc(C)cc2)cc1 | – | Non-toxic | 40.4 mg/kg | – | – | – | – | –
COc1ccc(-c2nnc(SC)nc2-c2ccc(OC)cc2)cc1 | Non-toxic | Non-toxic | 41.4 mg/kg | – | – | – | – | –
CSc1nnc(-c2ccc(C)cc2)c(-c2ccc(C)cc2)n1 | Non-toxic | Non-toxic | 39.4 mg/kg | – | – | – | – | –
CSc1nnc(-c2ccc(F)cc2)c(-c2ccc(F)cc2)n1 | Non-toxic | 33% | – | – | – | – | – | –
Cc1ccc(-c2nnc(SCc3cccnc3)nc2-c2ccc(C)cc2)cc1 | Non-toxic | Non-toxic | 47 mg/kg | – | – | – | – | –
Nc1nnc(-c2cccc(Cl)c2Cl)c(N)n1 [LAMOTRIGINE] | – | – | – | – | 100% | 72.9 mg/kg | Non-toxic | Non-toxic
Sc1nnc(-c2cccs2)c(-c2cccs2)n1 | Non-toxic | Non-toxic | 24.42 mg/kg | – | – | – | – | –
